These results are taken from US20260355196A1, “INHIBITORS AND DEGRADERS OF PIP4K PROTEIN” (Larkspur Biosciences, Inc., priority 2023, published 2026).

A value given as a limit tells only on which side of the number the result lay.

The target of this test is T1, PIP4K2C (Homo sapiens, UniProt Q8TBX8).
T1 sequence (Q8TBX8 1-421): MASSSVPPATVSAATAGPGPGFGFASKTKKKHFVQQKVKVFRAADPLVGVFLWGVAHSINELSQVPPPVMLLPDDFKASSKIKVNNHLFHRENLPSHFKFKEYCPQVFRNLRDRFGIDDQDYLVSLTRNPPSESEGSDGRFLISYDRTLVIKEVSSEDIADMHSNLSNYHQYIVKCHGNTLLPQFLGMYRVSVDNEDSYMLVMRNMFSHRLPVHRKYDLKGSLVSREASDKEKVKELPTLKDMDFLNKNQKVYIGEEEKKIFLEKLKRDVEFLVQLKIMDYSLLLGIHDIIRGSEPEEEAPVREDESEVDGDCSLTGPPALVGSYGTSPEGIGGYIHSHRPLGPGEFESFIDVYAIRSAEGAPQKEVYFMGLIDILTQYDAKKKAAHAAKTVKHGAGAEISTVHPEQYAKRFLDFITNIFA
The test is described as follows: Enzyme Binding Assay (KINOMEscan): active site-directed competition binding to an immobilized ligand. Particulars: 11-point dose response, duplicate, top concentration 5 micromolar; read-out: Pip4k2c Kd: IC50. Set-up: purchased Eurofins DiscoverX, San Diego, CA 87-0007-1094. The method, boiled down: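 IC50 values come from Hill-equation fits (Levenberg-Marquardt) to 11-point duplicate titrations starting at 5 micromolar. Read-out is competition of compound with an immobilized ligand for the kinase active site.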
As to `CC(=O)N[C@H]1CC[C@H](Nc2ncc(F)c(-c3ccnc(N4CCCCC4=O)c3)n2)CC1` [Compound 257, trans-N-(-4-((5-fluoro-4-(2-(2-oxopiperidin-1-yl)pyridin-4-yl)pyrimidin-2-yl)amino)cyclohexyl)acetamide], the concentration for half-maximal inhibition (IC50) was less than 500 nM.
With `NC(=O)[C@H]1CC[C@H](Nc2ncc(F)c(-c3ccnc(N4CCCCC4=O)c3)n2)CC1` [Compound 258, trans-4-((5-fluoro-4-(2-(2-oxopiperidin-1-yl)pyridin-4-yl)pyrimidin-2-yl)amino)cyclohexane-1-carboxamide], the IC50 was less than 500 nM.
For `NC(=O)[C@H]1CC[C@H](Nc2ncc(F)c(-c3cccc(C(=O)N4CC[C@H](O)C4)c3)n2)CC1` [Compound 259, trans-(S)-4-((5-fluoro-4-(3-(3-hydroxypyrrolidine-1-carbonyl)phenyl)pyrimidin-2-yl)amino)cyclohexane-1-carboxamide] the value was less than 500 nM; for `CC(=O)N[C@H]1CC[C@H](Nc2ncc(F)c(-n3cc(-n4ccccc4=O)cn3)n2)CC1` [Compound 260, trans-N-((1r,4r)-4-((5-fluoro-4-(4-(2-oxopyridin-1 (2H)-yl)-1H-pyrazol-1-yl)pyrimidin-2-yl)amino)cyclohexyl)acetamide], 1000 to 5000 nM.
The result for `CC(=O)N[C@H]1CC[C@H](Nc2ncc(F)c(-c3ccnc(N4CCCC4=O)c3)n2)CC1` [Compound 261, trans-N-(4-((5-fluoro-4-(2-(2-oxopyrrolidin-1-yl)pyridin-4-yl)pyrimidin-2-yl)amino)cyclohexyl)acetamide] reads less than 500 nM; that for `NC(=O)[C@H]1CC[C@H](Nc2ncc(F)c(-c3ccnc(N4CCCC4=O)c3)n2)CC1` [Compound 262, trans-(1r,4r)-4-((5-fluoro-4-(2-(2-oxopyrrolidin-1-yl)pyridin-4-yl)pyrimidin-2-yl)amino)cyclohexane-1-carboxamide], less than 500 nM; that for `NC(=O)[C@H]1CC[C@H](Nc2ncc(F)c(-c3ccnc(N4CCOC4=O)c3)n2)CC1` [Compound 263, trans-(1r,4r)-4-((5-fluoro-4-(2-(2-oxooxazolidin-3-yl)pyridin-4-yl)pyrimidin-2-yl)amino)cyclohexane-1-carboxamide], less than 500 nM.
For `NC(=O)[C@H]1CC[C@H](Nc2ncc(F)c(-c3cccc(N4CCCCC4=O)c3)n2)CC1` [Compound 264, trans-4-((5-fluoro-4-(3-(2-oxopiperidin-1-yl)phenyl)pyrimidin-2-yl)amino)cyclohexane-1-carboxamide] the value was less than 500 nM.
On to `CC(=O)N[C@H]1CC[C@H](Nc2ncc(F)c(-c3ccnc(-n4ccccc4=O)c3)n2)CC1` [Compound 265, trans-N-(4-((5-fluoro-4-(2-oxo-2H-[1,2′-bipyridin]-4′-yl)pyrimidin-2-yl)amino)cyclohexyl)acetamide], for which the IC50 is less than 500 nM.
For `CC(=O)N[C@H]1CC[C@H](Nc2ncc(F)c(-c3ccnc(N4CCCOC4=O)c3)n2)CC1` [Compound 266, trans-N-(4-((5-fluoro-4-(2-(2-oxo-1,3-oxazinan-3-yl)pyridin-4-yl)pyrimidin-2-yl)amino)cyclohexyl)acetamide] the value was less than 500 nM; for `CC(=O)N[C@H]1CC[C@H](Nc2ncc(F)c(-c3cccc(N4CCOCC4=O)c3)n2)CC1` [Compound 267, trans-N-(4-((5-fluoro-4-(3-(3-oxomorpholino)phenyl)pyrimidin-2-yl)amino)cyclohexyl)acetamide], less than 500 nM.
The result for `NC(=O)[C@H]1CC[C@H](Nc2ncc(F)c(-c3cccc(N4CCOCC4=O)c3)n2)CC1` [Compound 268, trans-4-((5-fluoro-4-(3-(3-oxomorpholino)phenyl)pyrimidin-2-yl)amino)cyclohexane-1-carboxamide] reads less than 500 nM; that for `CC(=O)N[C@H]1CC[C@H](Nc2ncc(F)c(-c3cccc(N4CCOCC4=O)n3)n2)CC1` [Compound 270, trans-N-(4-((5-fluoro-4-(6-(3-oxomorpholino)pyridin-2-yl)pyrimidin-2-yl)amino)cyclohexyl)acetamide], less than 500 nM; that for `NC(=O)[C@H]1CC[C@H](Nc2ncc(F)c(-c3cccc(N4CCOCC4=O)n3)n2)CC1` [Compound 271, trans-4-((5-fluoro-4-(6-(3-oxomorpholino)pyridin-2-yl)pyrimidin-2-yl)amino)cyclohexane-1-carboxamide], less than 500 nM.
With `CC(=O)N[C@H]1CC[C@H](Nc2ncc(F)c(-c3ccnc(N4CCOCC4=O)c3)n2)CC1` [Compound 272, trans-N-(4-((5-fluoro-4-(2-(3-oxomorpholino)pyridin-4-yl)pyrimidin-2-yl)amino)cyclohexyl)acetamide], the IC50 is less than 500 nM.
Turning to `NC(=O)[C@H]1CC[C@H](Nc2ncc(F)c(-c3ccnc(N4CCOCC4=O)c3)n2)CC1` [Compound 273, trans-4-((5-fluoro-4-(2-(3-oxomorpholino)pyridin-4-yl)pyrimidin-2-yl)amino)cyclohexane-1-carboxamide], the IC50 is less than 500 nM.
The result for `NC(=O)[C@H]1CC[C@H](Nc2ncc(F)c(-c3cccc(N4CCCCC4=O)n3)n2)CC1` [Compound 274, trans-4-((5-fluoro-4-(6-(2-oxopiperidin-1-yl)pyridin-2-yl)pyrimidin-2-yl)amino)cyclohexane-1-carboxamide] reads less than 500 nM; that for `CC(=O)N1CCC(Nc2ncc(F)c(-c3cccc(N4CCOCC4)c3)n2)CC1` [Compound 606, 1-[4-[[5-fluoro-4-(3-morpholinophenyl)pyrimidin-2-yl]amino]-1-piperidyl]ethanone], less than 500 nM; that for `NC(=O)[C@H]1CC[C@H](Nc2ncc(F)c(-c3cccc(N4CCOCC4)c3)n2)CC1` [Compound 607, trans-4-((5-fluoro-4-(3-morpholinophenyl)pyrimidin-2-yl)amino) cyclohexane-1-carboxamide], less than 500 nM.
With `CC(=O)N[C@H]1CC[C@H](Nc2ncc(F)c(-c3cccc(N4CCOCC4)c3)n2)CC1` [Compound 608, trans-N-(4-((5-fluoro-4-(3-morpholinophenyl)pyrimidin-2-yl)amino)cyclohexyl)acetamide], the IC50 was less than 500 nM.
As for `CC(=O)N[C@H]1CC[C@H](Nc2ncc(F)c(-c3cccc(-c4ccccc4)c3)n2)CC1` [Compound 609, trans-N-(4-((4-([1,1′-biphenyl]-3-yl)-5-fluoropyrimidin-2-yl)amino)cyclohexyl)acetamide], the IC50 is less than 500 nM.
For `NC(=O)[C@H]1CC[C@H](Nc2ncc(F)c(-c3cccc(-c4ccccc4)c3)n2)CC1` [Compound 610, trans-4-((4-([1,1′-biphenyl]-3-yl)-5-fluoropyrimidin-2-yl)amino)cyclohexane-1-carboxamide] the value was less than 500 nM; for `CC(=O)N1CCC(Nc2ncc(F)c(-c3cccc(-c4ccccc4)c3)n2)CC1` [Compound 611, 1-(4-((4-([1,1′-biphenyl]-3-yl)-5-fluoropyrimidin-2-yl)amino)piperidin-1-yl)ethan-1-one], less than 500 nM; for `NC(=O)[C@@H]1CCC[C@H](Nc2ncc(F)c(-c3cccc(-c4ccccc4)c3)n2)C1` [Compound 612, (1R,3S)-3-((4-([1,1′-biphenyl]-3-yl)-5-fluoropyrimidin-2-yl)amino) cyclohexane-1-carboxamide], less than 500 nM.
For `CC(=O)N1CC[C@H](Nc2ncc(F)c(-c3cccc(-n4ccccc4=O)c3)n2)C1` [Compound 613, (S)-1-(3-(2-((1-acetylpyrrolidin-3-yl)amino)-5-fluoropyrimidin-4-yl)phenyl)pyridin-2(1H)-one], the IC50 was less than 500 nM.
For `CC(=O)N1CCC(Nc2ncc(F)c(-c3cccc(-n4ccccc4=O)c3)n2)CC1` [Compound 614, 1-(3-(2-((1-acetylpiperidin-4-yl)amino)-5-fluoropyrimidin-4-yl)phenyl)pyridin-2(1H)-one] the value was less than 500 nM.
The result for `NC(=O)[C@H]1CC[C@H](Nc2ncc(F)c(-c3cccc(N4CCCCC4)c3)n2)CC1` [Compound 615, trans-4-((5-fluoro-4-(3-(piperidin-1-yl)phenyl)pyrimidin-2-yl)amino)cyclohexane-1-carboxamide] reads less than 500 nM.
For `CC(=O)N[C@H]1CC[C@H](Nc2ncc(F)c(-c3cccc(N4CCCCC4)c3)n2)CC1` [Compound 616, trans-N-(4-((5-fluoro-4-(3-(piperidin-1-yl)phenyl)pyrimidin-2-yl)amino)cyclohexyl)acetamide] the value was less than 500 nM; for `NC(=O)[C@H]1CC[C@H](Nc2ncc(F)c(-c3cccc(-n4ccccc4=O)n3)n2)CC1` [Compound 617, trans-4-((5-fluoro-4-(2-oxo-2H-[1,2′-bipyridin]-6′-yl)pyrimidin-2-yl)amino)cyclohexane-1-carboxamide], less than 500 nM; for `NC(=O)[C@H]1CC[C@H](Nc2ncc(F)c(-c3cccc(C4CC4)c3)n2)CC1` [Compound 618, trans-(1r,4r)-4-((4-(3-cyclopropylphenyl)-5-fluoropyrimidin-2-yl)amino)cyclohexane-1-carboxamide], less than 500 nM.
For `CC(=O)N[C@H]1CC[C@H](Nc2ncc(F)c(-c3cccc(C4CC4)c3)n2)CC1` [Compound 619, trans-N-((1r,4r)-4-((4-(3-cyclopropylphenyl)-5-fluoropyrimidin-2-yl)amino)cyclohexyl)acetamide], the half-inhibitory concentration (IC50) is less than 500 nM.
